# Measurements taken from US8163724B2, “Glucocorticosteroids, processes for their preparation, pharmaceutical compositions containing them and their use in therapy” (AstraZeneca AB, priority 2007, dated 2012).
# Target: T1, recombinant human GR (Homo sapiens, UniProt P04150)
# T1 construct: purchased Panvera/Invitrogen P2812 (kit P2893)
# T1 sequence (P04150 1-777): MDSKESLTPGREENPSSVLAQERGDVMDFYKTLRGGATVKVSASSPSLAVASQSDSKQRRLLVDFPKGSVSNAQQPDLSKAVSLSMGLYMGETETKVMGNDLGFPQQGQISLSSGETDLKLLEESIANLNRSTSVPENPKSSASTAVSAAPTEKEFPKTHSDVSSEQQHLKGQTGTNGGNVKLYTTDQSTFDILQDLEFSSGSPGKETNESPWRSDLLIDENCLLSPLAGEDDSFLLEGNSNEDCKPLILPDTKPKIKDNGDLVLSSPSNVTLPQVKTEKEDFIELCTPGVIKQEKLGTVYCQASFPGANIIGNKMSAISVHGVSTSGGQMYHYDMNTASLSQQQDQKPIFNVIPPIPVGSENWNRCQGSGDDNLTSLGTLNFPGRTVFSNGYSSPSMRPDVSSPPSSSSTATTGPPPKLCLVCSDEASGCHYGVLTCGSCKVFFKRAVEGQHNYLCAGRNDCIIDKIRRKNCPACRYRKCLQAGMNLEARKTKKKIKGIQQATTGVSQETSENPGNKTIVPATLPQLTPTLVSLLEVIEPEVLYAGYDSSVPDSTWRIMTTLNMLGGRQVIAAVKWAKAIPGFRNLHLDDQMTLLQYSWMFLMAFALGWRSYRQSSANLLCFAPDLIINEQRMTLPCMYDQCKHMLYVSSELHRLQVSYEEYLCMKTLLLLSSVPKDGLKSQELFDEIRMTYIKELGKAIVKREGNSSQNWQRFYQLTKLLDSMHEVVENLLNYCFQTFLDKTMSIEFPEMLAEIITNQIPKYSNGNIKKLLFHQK
# Assay: Human Glucocorticoid Receptor (GR) Assay (fluorescence polarization, Panvera/Invitrogen kit)
# Assay type: binding
# Settings: fluorescence polarization; GS Red tracer; 2 hours at room temperature; 100% control 10 μM Dexamethasone; read-out: Inhibition of GR binding, IC50
# In short: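 Fluorescence polarization competition with recombinant GR and GS Red fluorescent ligand plus stabilizing peptide and DTT in potassium phosphate/sodium molybdate/EDTA buffer with DMSO. Incubated 2 hours at room temperature in the dark; 0% control DMSO, 100% control 10 μM dexamethasone.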
row,SMILES,IC50
1,"C[C@]12Cc3cnn(-c4ccc(F)c(F)c4)c3C=C1CC[C@@H]1[C@@H]2[C@@H](O)C[C@@]2(C)[C@H]1CC[C@]2(OC(=O)c1ccco1)C(=O)SCC#N [Example 103, (1R,3aS,3bS,10aR,10bS,11S,12aS)-1-{[(Cyanomethyl)thio]carbonyl}-7-(3,4-difluorophenyl)-11-hydroxy-10a,12a-dimethyl-1,2,3,3a,3b,4,5,7,10,10a,10b,11,12,12a-tetradecahydrocyclopenta[5,6]naphtho[1,2-f]indazol-1-yl furan-2-carboxylate]",6.4 nM
2,"CCOC(=O)[C@@]1(O)CC[C@H]2[C@@H]3CCC4=Cc5c(cnn5-c5ccc(F)cc5)C[C@]4(C)[C@H]3[C@@H](O)C[C@@]21C [Example 104, Ethyl (1R,3aS,3bS,10aR,10bS,11S,12aS)-7-(4-fluorophenyl)-1,11-dihydroxy-10a,12a-dimethyl-1,2,3,3a,3b,4,5,7,10,10a,10b,11,12,12a-tetradecahydrocyclopenta[5,6]naphtho[1,2-f]indazole-1-carboxylate]",4.2 nM
3,"C[C@]12Cc3cnn(-c4ccccn4)c3C=C1CC[C@@H]1[C@@H]2[C@@H](O)C[C@@]2(C)[C@H]1CC[C@]2(OC(=O)c1ccco1)C(=O)OCC#N [Example 105, Cyanomethyl(1R,3aS,3bS,10aR,10bS,11S,12aS)-1-[(furan-2-ylcarbonyl)oxy]-11-hydroxy-10a,12a-dimethyl-7-pyridin-2-yl-1,2,3,3a,3b,4,5,7,10,10a,10b,11,12,12a-tetradecahydrocyclopenta[5,6]naphtho[1,2-f]indazole-1-carboxylate]",6.1 nM
4,"C[C@]12Cc3cnn(-c4ccc(S(C)(=O)=O)cc4)c3C=C1CC[C@@H]1[C@@H]2[C@@H](O)C[C@@]2(C)[C@H]1CC[C@]2(OC(=O)c1ccco1)C(=O)SCC#N [Example 106, (1R,3aS,3bS,10aR,10bS,11S,12aS)-1-{[(Cyanomethyl)sulfanyl]carbonyl}-11-hydroxy-10a,12a-dimethyl-7-[4-(methylsulfonyl)phenyl]-1,2,3,3a,3b,4,5,7,10,10a,10b,11,12,12a-tetradecahydrocyclopenta[5,6]naphtho[1,2-f]indazol-1-yl furan-2-carboxylate]",160 nM
5,"CN(C)C(=O)SC(=O)[C@@]1(OC(=O)c2ccco2)CC[C@H]2[C@@H]3CCC4=Cc5c(cnn5-c5cc(F)cc(F)c5)C[C@]4(C)[C@H]3[C@@H](O)C[C@@]21C [Example 107, (1R,3aS,3bS,10aR,10bS,11S,12aS)-7-(3,5-Difluorophenyl)-1-{[(dimethylcarbamoyl)sulfanyl]carbonyl}-11-hydroxy-10a,12a-dimethyl-1,2,3,3a,3b,4,5,7,10,10a,10b,11,12,12a-tetradecahydrocyclopenta[5,6]naphtho[1,2-f]indazol-1-yl furan-2-carboxylate]",59 nM
6,"COC(=O)c1cccc(-n2ncc3c2C=C2CC[C@@H]4[C@H]([C@@H](O)C[C@@]5(C)[C@H]4CC[C@]5(OC(=O)c4ccco4)C(=O)SCF)[C@@]2(C)C3)c1 [Example 108, (1R,3aS,3bS,10aR,10bS,11S,12aS)-1-{[(Fluoromethyl)sulfanyl]carbonyl}-11-hydroxy-7-[3-(methoxycarbonyl)phenyl]-10a,12a-dimethyl-1,2,3,3a,3b,4,5,7,10,10a,10b,11,12,12a-tetradecahydrocyclopenta[5,6]naphtho[1,2-f]indazol-1-yl furan-2-carboxylate]",6.6 nM
7,"CC(=O)O[C@]1(C(=O)SCC#N)CC[C@H]2[C@@H]3CCC4=Cc5c(cnn5-c5ccc(F)cc5)C[C@]4(C)[C@H]3[C@@H](O)C[C@@]21C [Example 109, (1R,3aS,3bS,10aR,10bS,11S,12aS)-1-{[(Cyanomethyl)sulfanyl]carbonyl}-7-(4-fluorophenyl)-11-hydroxy-10a,12a-dimethyl-1,2,3,3a,3b,4,5,7,10,10a,10b,11,12,12a-tetradecahydrocyclopenta[5,6]naphtho[1,2-f]indazol-1-yl acetate]",4.1 nM
8,"CC(=O)O[C@]1(C(=O)SCF)CC[C@H]2[C@@H]3CCC4=Cc5c(cnn5-c5ccc(F)cc5)C[C@]4(C)[C@H]3[C@@H](O)C[C@@]21C [Example 110, (1R,3aS,3bS,10aR,10bS,11S,12aS)-1-{[(Fluoromethyl)sulfanyl]carbonyl}-7-(4-fluorophenyl)-11-hydroxy-10a,12a-dimethyl-1,2,3,3a,3b,4,5,7,10,10a,10b,11,12,12a-tetradecahydrocyclopenta[5,6]naphtho[1,2-f]indazol-1-yl acetate]",6.7 nM
9,"CC(C)C(=O)O[C@]1(C(=O)SCC#N)CC[C@H]2[C@@H]3CCC4=Cc5c(cnn5-c5ccc(F)cc5)C[C@]4(C)[C@H]3[C@@H](O)C[C@@]21C [Example 111, (1R,3aS,3bS,10aR,10bS,11S,12aS)-1-{[(Cyanomethyl)sulfanyl]carbonyl}-7-(4-fluorophenyl)-11-hydroxy-10a,12a-dimethyl-1,2,3,3a,3b,4,5,7,10,10a,10b,11,12,12a-tetradecahydrocyclopenta[5,6]naphtho[1,2-f]indazol-1-yl 2-methylpropanoate]",6.3 nM
10,"CC(C)CC(=O)O[C@]1(C(=O)SCC#N)CC[C@H]2[C@@H]3CCC4=Cc5c(cnn5-c5ccc(F)cc5)C[C@]4(C)[C@H]3[C@@H](O)C[C@@]21C [Example 112, (1R,3aS,3bS,10aR,10bS,11S,12aS)-1-{[(Cyanomethyl)sulfanyl]carbonyl}-7-(4-fluorophenyl)-11-hydroxy-10a,12a-dimethyl-1,2,3,3a,3b,4,5,7,10,10a,10b,11,12,12a-tetradecahydrocyclopenta[5,6]naphtho[1,2-f]indazol-1-yl 3-methylbutanoate]",18 nM
11,"C[C@]12Cc3cnn(-c4ccc(F)cc4)c3C=C1CC[C@@H]1[C@@H]2[C@@H](O)C[C@@]2(C)[C@H]1CC[C@]2(OC(=O)C1CCC1)C(=O)SCC#N [Example 113, (1R,3aS,3bS,10aR,10bS,11S,12aS)-1-{[(Cyanomethyl)sulfanyl]carbonyl}-7-(4-fluorophenyl)-11-hydroxy-10a,12a-dimethyl-1,2,3,3a,3b,4,5,7,10,10a,10b,11,12,12a-tetradecahydrocyclopenta[5,6]naphtho[1,2-f]indazol-1-yl cyclobutanecarboxylate]",11 nM
12,"C[C@]12Cc3cnn(-c4ccc(F)cc4)c3C=C1CC[C@@H]1[C@@H]2[C@@H](O)C[C@@]2(C)[C@H]1CC[C@]2(OC(=O)CC1CCCC1)C(=O)SCC#N [Example 114, (1R,3aS,3bS,10aR,10bS,11S,12aS)-1-{[(Cyanomethyl)sulfanyl]carbonyl}-7-(4-fluorophenyl)-11-hydroxy-10a,12a-dimethyl-1,2,3,3a,3b,4,5,7,10,10a,10b,11,12,12a-tetradecahydrocyclopenta[5,6]naphtho[1,2-f]indazol-1-yl cyclopentylacetate]",16 nM
13,"C[C@]12Cc3cnn(-c4ccc(F)cc4)c3C=C1CC[C@@H]1[C@@H]2[C@@H](O)C[C@@]2(C)[C@H]1CC[C@]2(OC(=O)c1cccs1)C(=O)SCC#N [Example 115, (1R,3aS,3bS,10aR,10bS,11S,12aS)-1-{[(Cyanomethyl)sulfanyl]carbonyl}-7-(4-fluorophenyl)-11-hydroxy-10a,12a-dimethyl-1,2,3,3a,3b,4,5,7,10,10a,10b,11,12,12a-tetradecahydrocyclopenta[5,6]naphtho[1,2-f]indazol-1-yl thiophene-2-carboxylate]",10 nM
14,"Cc1cc(C(=O)O[C@]2(C(=O)SCC#N)CC[C@H]3[C@@H]4CCC5=Cc6c(cnn6-c6ccc(F)cc6)C[C@]5(C)[C@H]4[C@@H](O)C[C@@]32C)no1 [Example 116, (1R,3aS,3bS,10aR,10bS,11S,12aS)-1-{[(Cyanomethyl)sulfanyl]carbonyl}-7-(4-fluorophenyl)-11-hydroxy-10a,12a-dimethyl-1,2,3,3a,3b,4,5,7,10,10a,10b,11,12,12a-tetradecahydrocyclopenta[5,6]naphtho[1,2-f]indazol-1-yl 5-methylisoxazole-3-carboxylate]",6.9 nM
15,"CSCOC(=O)[C@@]1(O)CC[C@H]2[C@@H]3CCC4=Cc5c(cnn5-c5ccc(F)cc5)C[C@]4(C)[C@H]3[C@@H](O)C[C@@]21C [Example 117, (Methylsulfanyl)methyl(1R,3aS,3bS,10aR,10bS,11S,12aS)-7-(4-fluorophenyl)-1,11-dihydroxy-10a,12a-dimethyl-1,2,3,3a,3b,4,5,7,10,10a,10b,11,12,12a-tetradecahydrocyclopenta[5,6]naphtho[1,2-f]indazole-1-carboxylate]",7 nM
